# Tests used:
# [1] = tested on: IL-1β, IL-2, IL-6, IL-13, G-CSF, and MIP-1α; assay: inflammatory cytokines
# p38 MAPK = p38 MAPK activation in TGF-β1 stimulated HDF; assay type: cell-based, human
# [2] = tested on: human dermal fibroblasts (HDF); assay: human dermal fibroblast / myofibroblast studies; assay type: cell-based
# mouse DPT wounds = assay: neutrophil infiltration in mouse DPT burn wounds; assay type: in vivo
smiles,measurement,setting,value
"Cc1ccc(=O)n(-c2ccccc2)c1 [Pirfenidone, 5-methyl-1-phenyl-2-(1H)-pyridone]","key inflammatory cytokines IL-1β, IL-2, IL-6, IL-13, G-CSF, and MIP-1α",[1],reduced
same,p38 MAPK activation,p38 MAPK,reduced
same,HDF transdifferentiation to myofibroblasts,[2],inhibited
same,collagen deposition and fibrosis-related gene expression,[2],decreased
same,contractile machinery of activated dermal myofibroblasts,[2],weakened
same,neutrophil infiltration,mouse DPT wounds,decreased

# Source: patent US12478509B2, “Layered composite for scar treatment and prevention” (THE GOVERNMENT OF THE UNITED STATES AS REPRESENTED BY THE …, priority 2019, dated 2025)
